The test system of data set [1] is His-induced bronchoconstriction. Kind of data set: Bronchoprotection in guinea pig model of histamine-induced bronchoconstriction. Type of data set: in vivo. The settings on record: inhalation, 1.5 hours post-dose. Here is the method:
(§1) Groups of 6 male guinea pigs (Duncan-Hartley (HsdPoc:DH) Harlan, Madison, Wis.) weighing between 250 and 350 g were individually identified by cage cards. Throughout the study, animals were allowed access to food and water ad libitum.
(§2) Forty-five minutes prior to the start of the pulmonary evaluation, each guinea pig was anesthetized with an intramuscular injection of ketamine (43.75 mg/kg), xylazine (3.50 mg/kg) and acepromazine (1.05 mg/kg). After the surgical site was shaved and cleaned with 70% alcohol, a 2-3 cm midline incision of the ventral aspect of the neck was made. […] The depth of anesthesia was monitored and adjusted if the animal responds to pinching of its paw or if the respiration rate was greater than 100 breaths/minute. […]
(§3) Once it was determined that baseline values were within the range of 0.3-0.9 mL/cm H2O for compliance and within the range of 0.1-0.199 cm H2O/mL per second for resistance, the pulmonary evaluation was initiated. […]
(§4) Starting this program initiated the experimental protocol and data collection. The changes in […] over time that occur within the plethysmograph with each breath were measured via a Buxco pressure transducer. By integrating this signal over time, a measurement of flow was calculated for each breath. […]

In data set [2] the test system is ACh-induced bronchoconstriction. Briefly: Bronchoprotection in guinea pig model of acetylcholine-induced bronchoconstriction. Type of data set: in vivo. The settings on record: inhalation, 1.5 hours post-dose. Here is the method: as §1, §2, §3, §4
In data set [3] the test system is human β1, β2 or β3 adrenergic receptors. Briefly: Whole-cell cAMP Flashplate assay in CHO cell lines heterologously expressing human β adrenergic receptors. Type of data set: cell-based. Conditions: CHO-K1 cells; receptor subtype not named in the result sentence; read-out: EC50 values (β receptor agonist potency, cAMP). Here is the method: Test compounds (10 mM in DMSO) were diluted into PBS containing 0.1% BSA in Beckman Biomek-2000 and tested at 11 different concentrations ranging from 100 μM to 1 pM.

Data set [4] can be described thus: Dynamic moisture sorption assessment (DMS). The settings on record: for deliquescence: exposed to atmosphere moisture. Type of data set: physicochemical. Here is the method: Approximately 10 mg of sample was used in the microbalance and the sample was run as received. The humidity was set at ambient condition on the day the analysis began. A typical DMSG analysis consisted of three scans: ambient to 2% relative humidity (RH), 2% RH to 90% RH, 90% RH to 5% RH. The scan rate was 5% RH/step. The mass was measured every two minutes using an equilibrium window of 5 points within 0.01% of the initial sample weight. The RH was changed to the next value (+/−5% RH) when the mass of the sample was stable to within 0.01% for 5 consecutive points.

A short description of data set [5]: Thermal analysis (DSC and TGA). The format is physicochemical. Here is the method: Differential scanning calorimetry (DSC) was performed using a TA Instruments Model Q-10 module with a Thermal Analyst controller. Data were collected and analyzed using TA Instruments Thermal Solutions software. A sample of about 1 mg was accurately weighed into an aluminum pan with lid. The sample was evaluated using a linear heating ramp of 5° C./min from ambient temperature to approximately 300° C. The DSC cell was purged with dry nitrogen during use.
Thermogravimetric analysis (TGA) was performed using a TA Instruments Model Q-50 module equipped with Hi-Resolution capability. Data were collected and analyzed using TA Instruments Thermal Solutions software. A sample weighing about 10 mg was placed onto a platinum pan and scanned with a high resolution-heating rate from ambient temperature to 300° C. The balance and furnace chambers were purged with nitrogen flows during use.

[6] abbreviates: listed as crystalline naphthalene-1,5-disulfonic acid salt of the compound of formula I.
[7] abbreviates: listed as naphthalene-1,5-disulfonic acid salt of the present invention.

On to `O=C(Nc1ccccc1-c1ccccc1)OC1CCN(CCCCCCCCCNC[C@H](O)c2ccc(O)c3[nH]c(=O)ccc23)CC1` [compound of formula I, biphenyl-2-ylcarbamic acid 1-{9-[(R)-2-hydroxy-2-(8-hydroxy-2-oxo-1,2-dihydro-quinolin-5-yl)ethylamino]nonyl}piperidin-4-yl ester], for which the “ID50 for His-induced bronchoconstriction” value in data set [1] is “less than 100 μg/mL”. In addition, the “ID50 for ACh-induced bronchoconstriction” value in data set [2] is reported as “less than 100 μg/mL”. Further, in data set [3], the EC50 is under 10 nM.

On to “Biphenyl-2-ylcarbamic Acid 1-{9-[(R)-2-Hydroxy-2-(8-Hydroxy-2-oxo-1,2-dihydroquinolin-5-yl)ethylamino]nonyl}piperidin-4-yl Ester Naphthalene-1,5-disulfonic Acid Salt [Example 3]”, for which the moisture sorption/desorption profile entry in data set [4] is recorded as “reversible”. For the same compound, the deliquescence entry in data set [4] (setting [6]) is listed as “not to be deliquescent”; in data set [4] (setting [7]) it was “not deliquescent”. For the same compound, the values for the weight gain in data set [4] (humidity range from 2% RH up to 90% RH) and in data set [4] (humidity range of 40% RH to 75% RH) were 3.7% and “less than 1.5%”, respectively. Further, the “hygroscopicity (weight gain when exposed to atmospheric moisture)” value in data set [4] (setting [6]) is on record as “less than 5%”; in data set [4] (setting [7]), under 5%. Besides, the “weight loss (TGA)” value in data set [5] (from room temperature to 150° C.) is given as “about 1.8%”. Further, the “temperature below which no thermal decomposition occurs (DSC)” value in data set [5] (heating ramp of 5° C./min) was at least 200 °C.

As usually defined, the EC50 is the concentration at which the effect is half-maximal.

The values above are taken from patent US7320990B2, “Crystalline form of a biphenyl compound” (Theravance, Inc., priority 2004, dated 2008).
